Results on six compounds are retold here after patent US12414960B2, “Analogues of oleuropein and oleacein and uses thereof” (Attica Sciences Ltd., priority 2020, dated 2025).

In one data set the target is ACLY (Homo sapiens, UniProt P53396). To be noted: description of the Tocris compound; read-out: IC50 as ACLY inhibitor; cited from earlier work.
Data set [1] in a line: Deoxyribose degradation assay (hydroxyl radical scavenging). The settings on record: NS = not statistically significant. It counts as biochemical. The essentials:
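Hydroxyl radicals from Fenton's reaction degrade 2-deoxyribose. Scavenging is measured as inhibition of this oxidation, read spectrophotometrically as pink chromogen absorbance at 532 nm.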

A further data set concerns TNF-α. Kind of data set: ELISA of TNF-α in PMA/LPS-treated THP-1 cells. Format: cell-based, human. To be noted: THP-1, PMA then LPS 100 ng/ml 24 hours, 5 uM compound added 2 hours before LPS. How it is done:
(§1) Human monocytes (THP-1, ATCC) were cultured in RPMI 1640 media supplemented with HEPES buffer (10 mM), sodium pyruvate (1 mM), glucose (4.5 g/L), fetal bovine serum (10%), penicillin (100 U/mL), streptomycin (100 μg/mL), and 2-mercaptoethanol (0.05 mM). THP-1 cells were treated with PMA (100 ng/ml) for 48 hours and then washed and rested for 24 hours in PMA-free media. These cells were treated with LPS (100 ng/ml) for 24 hours in the presence or absence of 5 uM of […] compounds (added 2 hours before LPS). Cell culture supernatants were collected and IL-1β (cat. No DLB50, R&D Systems), TNF-α (cat. no. DTA00D, R&D Systems) and IL-6 (cat. No D6050, R&D Systems) protein levels were evaluated by ELISA assay.

In the next data set the test system is pACLY (S455). Kind of data set: ELISA of pACLY (S455) / ACLY enzymatic activity in PANC-1 cells. Format: cell-based, human. To be noted: 5 μM. How it is done:
ELISA assay was used to evaluate the effect of GS compounds on protein activity levels in PANC-1 cancer cells. PANC-1 cells were serum-starved overnight and then treated with rIGF1 (100 ng/mL) for 24 hours, with or without GS27 (5 μM). The levels of the following proteins were evaluated by ELISA assay: a) p70 S6 (T389) (cat no. 54164C, Cell Signaling); b) pAKT (S473), (cat no. 80895, Cell Signaling); c) pACLY (S455), (cat no. okag1672, Avivasysbio); d) pAMPK (T172) (cat no. 7959C, Cell Signaling) and e) p65/NFKB (S536), (cat no. 7173, Cell Signaling).
PANC-1 is a human pancreatic ductal adenocarcinoma cell line derived from the carcinoma of a person.
The molecular mechanism of action of GS27, a compound that has exerted potent anti-cancer activity in different cancer cell lines including pancreatic cancer cells, was investigated. Oleacein has been implicated to have anti-inflammatory and metabolic effects, thus the potential effects of GS27 in different metabolic and inflammatory pathways were evaluated. Specifically, the protein levels of p70 S6 (T389), pAKT (S473), pACLY (S455), pAMPK (T172) and p65/NFKB (S536) were evaluated by ELISA assay in PANC-1 pancreatic cancer cells treated with 5 μM GS27. GS27 reduced p70 S6 and AKT phosphorylation levels, while it increased AMPK phosphorylation.
The effects of different GS compounds on ACLY enzymatic activity were evaluated by ELISA assay in PANC-1 pancreatic cancer cells. […] This finding is unexpected, since GS21 has a very similar structure with GS27, with the only difference being the presence of an oxygen atom in ester GS21 instead of a sulfur atom in thioester GS27.

The subject of a further data set is IL-1β. Kind of data set: ELISA of IL-1β in PMA/LPS-treated THP-1 cells. To be noted: THP-1, PMA then LPS 100 ng/ml 24 hours, 5 uM compound added 2 hours before LPS. It counts as cell-based, human. As for the experimental part:
as §1

For data set [2], the system named is MCF-7 ER+ breast cancer cells. Kind of data set: XTT cell growth assay, MCF-7 ER+. It counts as cell-based, human. To be noted: NS = not statistically significant. The essentials: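 MCF-7 ER+ cells grown 24 h in DMEM, then given 5, 10 or 50 μM compound in serum-free DMEM for 24 h. XTT reagent added for 4 h. Absorbance read at 450 nm with 630 nm reference; serum-free DMEM alone as negative control.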

The next data set has as its system IL-6. Kind of data set: ELISA of IL-6 in PMA/LPS-treated THP-1 cells. Format: cell-based, human. To be noted: THP-1, PMA then LPS 100 ng/ml 24 hours, 5 uM compound added 2 hours before LPS. How it is done:
as §1

The conditions of data set [3]: after olive oil consumption, literature; cited from earlier work.
The next data set deals with HepG2 liver cancer tumor. Kind of data set: HepG2 xenograft mouse model. It counts as in vivo, nu/nu mice. To be noted: 20 mg/kg i.p. every 5 days, until 20 days post-treatment. As for the experimental part: The effect of GS27 on liver cancer tumor growth in mice was evaluated in a HepG2 xenograft mouse model. HepG2 is a human liver cancer cell line, obtained from ATCC (cat. No HB-8065). Since hepatocellular carcinoma is often treated with the chemotherapeutic agent doxorubicin and embolization, results were compared to those obtained with doxorubicin.
Xenograft tumors were generated by injecting HepG2 liver cancer cells (2.5×10^6) into the right flank of female nu/nu mice (Charles River Laboratories). All mice developed tumors in 10 days with size of approximately 100 mm3. For each experiment, mice were randomly distributed into equal groups (4 mice per group) that were untreated, or treated by intraperitoneal injections every 5 days with 20 mg/kg GS27 or doxorubicin. Tumor volume (average, SD) was evaluated until 20 days post-treatment.

The subject of data set [4] is LNCaP prostate cancer cells. The settings on record: literature; cited from earlier work.

The structures appear in SMILES notation.

ACLY, sequence (P53396 whole entry): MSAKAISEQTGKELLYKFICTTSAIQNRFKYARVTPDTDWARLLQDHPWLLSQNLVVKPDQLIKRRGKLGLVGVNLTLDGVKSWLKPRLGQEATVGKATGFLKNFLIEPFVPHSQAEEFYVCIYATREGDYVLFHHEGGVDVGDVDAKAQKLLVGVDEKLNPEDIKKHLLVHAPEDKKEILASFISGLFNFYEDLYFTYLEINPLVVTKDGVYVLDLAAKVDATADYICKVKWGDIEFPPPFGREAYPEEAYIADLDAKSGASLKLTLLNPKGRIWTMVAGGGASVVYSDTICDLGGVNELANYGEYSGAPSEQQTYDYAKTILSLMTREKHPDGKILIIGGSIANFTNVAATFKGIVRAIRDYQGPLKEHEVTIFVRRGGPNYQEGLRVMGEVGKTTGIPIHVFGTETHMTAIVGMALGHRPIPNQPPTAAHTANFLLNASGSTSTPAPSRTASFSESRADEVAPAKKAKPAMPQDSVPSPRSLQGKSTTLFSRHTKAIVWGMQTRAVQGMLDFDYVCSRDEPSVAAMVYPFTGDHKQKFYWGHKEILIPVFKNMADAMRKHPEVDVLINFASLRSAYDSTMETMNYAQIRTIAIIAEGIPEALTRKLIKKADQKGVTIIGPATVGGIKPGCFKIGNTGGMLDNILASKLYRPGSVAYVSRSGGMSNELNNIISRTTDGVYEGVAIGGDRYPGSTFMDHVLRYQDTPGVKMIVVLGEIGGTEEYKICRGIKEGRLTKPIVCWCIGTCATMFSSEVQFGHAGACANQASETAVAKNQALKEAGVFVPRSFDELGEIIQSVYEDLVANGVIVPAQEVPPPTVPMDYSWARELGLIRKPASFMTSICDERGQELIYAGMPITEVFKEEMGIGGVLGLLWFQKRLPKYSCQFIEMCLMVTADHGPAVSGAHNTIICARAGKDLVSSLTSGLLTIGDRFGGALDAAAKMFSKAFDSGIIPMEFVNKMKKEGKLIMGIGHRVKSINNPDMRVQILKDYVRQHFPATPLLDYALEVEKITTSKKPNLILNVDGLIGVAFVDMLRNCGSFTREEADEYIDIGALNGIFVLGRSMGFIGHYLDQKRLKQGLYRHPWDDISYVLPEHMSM

For the compound `COc1ccc(-c2ccccc2)cc1NS(=O)(=O)c1cc(Cl)cc(Cl)c1O` [BMS303141], the IC50 on ACLY was 130 nM.

Regarding `C/C=C(/C=O)[C@@H](CC=O)CC(=O)OCc1cc2ccccc2[nH]1` [GS25, (3S,4E)-4-formyl-3-(2-oxoethyl)-4-hexenoic acid (1H-indol-2-yl)methyl ester], the “Deoxyribose Degradation Assay IC50” value in data set [1] is on record as 16.2 μg extract/mL. In addition, the TNF-α protein levels entry in the data set with TNF-α is recorded as “better effect on the suppression”. For the same compound, the “ACLY enzymatic activity (ELISA)” value in the data set with pACLY (S455) is reported as “small effect”. Also, the IL-1β protein levels entry in the data set with IL-1β is “reducing substantially”. Further, the “Effectiveness to suppress MCF7 cell growth (cell growth inhibition)” value in data set [2] (50 uM, 24 h) is “best efficacy”. The inhibition at 50 µM in [2] (Homo sapiens, MCF7, 24 h, read-out: Effectiveness to suppress MCF7 cell growth (cell growth inhibition)) was determined as 88.4%. In the data set on IL-6, the IL-6 protein levels entry is “effective for reducing”.

Take `OCCc1ccc(O)c(O)c1` [Hydroxytyrosol]: the “time of peak plasma levels after ingestion” value in [3] was 1 h.

For the compound `COc1cccc2c1C(=O)c1c(O)c3c(c(O)c1C2=O)C[C@@](O)(C(=O)CO)C[C@@H]3O[C@H]1C[C@H](N)[C@H](O)[C@H](C)O1` [doxorubicin, reference compound], in the data set on HepG2 liver cancer tumor, the “reduction in the tumor size, HepG2 liver cancer” value is 13%.

Regarding `CNC(=O)c1ccc(N2C(=S)N(c3ccc(C#N)c(C(F)(F)F)c3)C(=O)C2(C)C)cc1F` [enzalutamide], the “concentration found to reduce LNCaP prostate cancer cell growth” value in [4] was 10 µM.

Consider `OCCc1ccc(O)cc1` [tyrosol], for which the “time of peak plasma levels after ingestion” value in [3] was 1 h.
